What was measured:
GDP-loaded KRAS G12D = GDP-loaded KRAS G12D (Homo sapiens, UniProt P01116, G12D); test: KRAS G12D Probe Displacement Assay; assay type: binding; details: KRAS G12D 0.5 nM, biotinylated probe 2 4 nM; read-out: KRAS G12D Probe Displacement Assay IC50
GDP-loaded WT KRAS = GDP-loaded WT KRAS (Homo sapiens, UniProt P01116); test: KRAS WT Probe Displacement Assay; assay type: binding; details: WT KRAS 3 nM, biotinylated probe 1 60 nM; read-out: KRAS WT Probe Displacement Assay IC50
[1] = tested on: pERK1/2 (THR202/TYR204) in AsPC-1 cells; test: pERK Assay (HTRF) in AsPC-1 cells; assay type: cell-based; details: Homo sapiens, ASPC1, 2 h compound treatment
Description: AsPC-1 cell line was used in this study. […] 30000 cells per well were seeded into a 96-well plate and incubated overnight. […] After 2 h compound treatment, cells were lysed, and the pERK1/2 (THR202/TYR204) level in the cell lysates was detected by HTRF kit (Cisbio). In brief, a total of 16 μL of cell lysate from each well of a 96-well plate was transferred to a 384-well white assay plate. Lysate from each well was incubated with 2 μL of Eu3+-cryptate (donor) labeled anti-phospho-ERK1/2 and 2 μL of D2 (acceptor) labeled anti-phospho-ERK1/2 antibodies (Cisbio) overnight in dark at room temperature. When donor and acceptor are in close proximity, excitation of the donor with laser triggers a Fluorescence Resonance Energy Transfer (FRET) towards the acceptor, which in turn fluoresces at 655 nm wavelength. FRET signals were measured using a PHERAstar FSX reader (BMG Labtech).

Sequence of GDP-loaded WT KRAS (P01116 1-188 isoform P01116-2): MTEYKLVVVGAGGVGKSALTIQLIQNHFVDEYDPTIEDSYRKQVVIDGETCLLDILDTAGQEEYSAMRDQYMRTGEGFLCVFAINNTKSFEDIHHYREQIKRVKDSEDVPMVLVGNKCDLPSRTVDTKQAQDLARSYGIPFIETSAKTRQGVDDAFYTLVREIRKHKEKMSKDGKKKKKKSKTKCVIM
Sequence of GDP-loaded KRAS G12D (P01116 1-188 isoform P01116-2 G12D): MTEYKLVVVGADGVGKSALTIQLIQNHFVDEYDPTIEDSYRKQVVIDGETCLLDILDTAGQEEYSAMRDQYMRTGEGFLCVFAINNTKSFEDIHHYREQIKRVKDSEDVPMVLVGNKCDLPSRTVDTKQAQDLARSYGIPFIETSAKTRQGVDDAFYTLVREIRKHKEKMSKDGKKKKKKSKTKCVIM

## Nc1nc2c(-c3c(C(F)(F)F)cc4c(N5C6CNCC5COC6)nc(OC[C@@]56CCCN5C[C@H](F)C6)nc4c3F)ccc(F)c2s1 [Example E55, 4-(4-(3-oxa-7,9-diazabicyclo[3.3.1]nonan-9-yl)-8-fluoro-2-(((2R,7aS)-2-fluorotetrahydro-1H-pyrrolizin-7a(5H)-yl)methoxy)-6-(trifluoromethyl)quinazolin-7-yl)-7-fluorobenzo[d]thiazol-2-amine]
GDP-loaded KRAS G12D
  IC50: 0.25 nM
GDP-loaded WT KRAS
  IC50: 2.7 nM
[1]
  IC50: 59 nM

## COCCNC1C[C@H]2CC[C@@H]1N2c1nc(OC[C@@]23CCCN2C[C@H](F)C3)nc2c(F)c(-c3ccc(F)c4sc(N)nc34)c(C(F)(F)F)cc12 (stereo partly drawn) [Example E58, 7-fluoro-4-(8-fluoro-2-(((2R,7aS)-2-fluorotetrahydro-1H-pyrrolizin-7a(5H)-yl)methoxy)-4-((1S,4R)-2-((2-methoxyethyl)amino)-7-azabicyclo[2.2.1]heptan-7-yl)-6-(trifluoromethyl)quinazolin-7-yl)benzo[d]thiazol-2-amine]
GDP-loaded KRAS G12D
  IC50: 0.5 nM
GDP-loaded WT KRAS
  IC50: 7.6 nM
[1]
  IC50: 190 nM

## CNC1C[C@H]2CC[C@@H]1N2c1nc(OC[C@@H]2C[C@@H](F)CN2C)nc2c(F)c(-c3ccc(F)c4sc(N)nc34)c(Cl)cc12 (stereo partly drawn) [Example E59, 4-(6-chloro-8-fluoro-2-(((2S,4R)-4-fluoro-1-methylpyrrolidin-2-yl)methoxy)-4-((1S,4R)-2-(methylamino)-7-azabicyclo[2.2.1]heptan-7-yl)quinazolin-7-yl)-7-fluorobenzo[d]thiazol-2-amine]
GDP-loaded KRAS G12D
  IC50: 14 nM
GDP-loaded WT KRAS
  IC50: 390 nM
[1]
  IC50: 1400 nM

## Nc1nc2c(-c3c(C(F)(F)F)cc4c(N5C6CCC5CNC6)nc(OC[C@@]56CCCN5C[C@H](F)C6)nc4c3F)ccc(F)c2s1 [Example E60, 4-(4-(3,8-diazabicyclo[3.2.1]octan-8-yl)-8-fluoro-2-(((2R,7aS)-2-fluorotetrahydro-1H-pyrrolizin-7a(5H)-yl)methoxy)-6-(trifluoromethyl)quinazolin-7-yl)-7-fluorobenzo[d]thiazol-2-amine]
GDP-loaded KRAS G12D
  IC50: 0.27 nM
GDP-loaded WT KRAS
  IC50: 2.6 nM
[1]
  IC50: 34 nM

## CN1CCCC1(C)COc1nc(N2CC3CCC(C2)N3)c2cc(Cl)c(-c3ccc(F)c4sc(N)nc34)c(F)c2n1 (stereo not drawn) [Example E61, 4-(4-(3,8-diazabicyclo [3.2.1]octan-3-yl)-6-chloro-2-((1,2-dimethylpyrrolidin-2-yl)methoxy)-8-fluoroquinazolin-7-yl)-7-fluorobenzo[d]thiazol-2-amine]
GDP-loaded KRAS G12D
  IC50: 2.6 nM
GDP-loaded WT KRAS
  IC50: 240 nM
[1]
  IC50: 2000 nM

## CC1(N2CCCCC2)CN(c2nc(N3CC4CCC(C3)N4)c3cc(Cl)c(-c4ccc(F)c5sc(N)nc45)c(F)c3n2)C1 [Example E62, 4-(4-(3,8-diazabicyclo[3.2.1]octan-3-yl)-6-chloro-8-fluoro-2-(3-methyl-3-(piperidin-1-yl)azetidin-1-yl)quinazolin-7-yl)-7-fluorobenzo[d]thiazol-2-amine]
GDP-loaded KRAS G12D
  IC50: 9.6 nM
GDP-loaded WT KRAS
  IC50: 660 nM
[1]
  IC50: 740 nM

## Nc1nc2c(-c3c(Cl)cc4c(N5CC6CCC(C5)N6)nc(OC[C@@]56CCCN5C[C@H](F)C6)nc4c3Cl)ccc(F)c2s1 [Example E63, 4-(4-(3,8-diazabicyclo[3.2.1]octan-3-yl)-6,8-dichloro-2-(((2R,7aS)-2-fluorotetrahydro-1H-pyrrolizin-7a(5H)-yl)methoxy)quinazolin-7-yl)-7-fluorobenzo[d]thiazol-2-amine]
GDP-loaded KRAS G12D
  IC50: 0.22 nM
GDP-loaded WT KRAS
  IC50: 8.5 nM
[1]
  IC50: 93 nM

## Nc1nc2c(-c3c(C(F)(F)F)cc4c(N5CC6CCC(C5)N6)nc(OC[C@@]56CCCN5C[C@H](F)C6)nc4c3Cl)ccc(F)c2s1 [Example E64, 4-(4-(3,8-diazabicyclo[3.2.1]octan-3-yl)-8-chloro-2-(((2R,7aS)-2-fluorotetrahydro-1H-pyrrolizin-7a(5H)-yl)methoxy)-6-(trifluoromethyl)quinazolin-7-yl)-7-fluorobenzoI[d]thiazol-2-amine]
GDP-loaded KRAS G12D
  IC50: 0.33 nM
GDP-loaded WT KRAS
  IC50: 5.1 nM
[1]
  IC50: 38 nM
